From patent US20260022142A1, “MACROCYCLIC IMMUNOMODULATORS” (Bristol-Myers Squibb Company, priority 2022, published 2026)
Numbered stars: 1 amine (or outer) side, 2 acyl side, 3 side chain; on linkers, the order of the positions; unused ones are H or OH. Bridge positions count the residues as written; N and C are the ends. Square brackets hold non-standard residues; d marks the D form. Peptide text beside a SMILES is read from it. * marks the point of attachment. ξ: configuration not given here. Bip = N[C@@H](Cc1ccc(-c2ccccc2)cc1)C(=O)O; Phe(3-Me) = Cc1cccc(C[C@H](N)C(=O)O)c1; γGlu = O=C(O)[C@H](CCC(=O)[*:2])N[*:1]; Val(3-OH) = CC(C)(O)[C@H](N)C(=O)O; Cha = N[C@@H](CC1CCCCC1)C(=O)O; Thr(3ξ) = CC(O)[C@H](N)C(=O)O; 12Ado = NCCCCCCCCCCCC(=O)O; Carboxymethyl = O=C(O)C*; Orn = NCCC[C@H](N)C(=O)O; Aun = NCCCCCCCCCCC(=O)O; Dab = NCC[C@H](N)C(=O)O; Dap = NC[C@H](N)C(=O)O; AEEA = NCCOCCOCC(=O)O

Biological target: T1, PD-1/PD-L1 interaction (PE-labeled human PD-L1-Ig binding to Jurkat cell line over-expressing human PD-1) (Homo sapiens, UniProt Q15116)
T1 construct: expressed in transfected cells; host or cells: Jurkat
Assay: Jurkat-PD-1 Cell Binding High-Content Screening Assay (CBA)
Format: cell-based
Conditions: Jurkat cell line over-expressing human PD-1; PE-labeled PD-L1-Ig 20 nM final; read-out: Jurkat hPD1-PDL1 IC50
Summary of the method: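 Jurkat cells over-expressing human PD-1 (8×10^3 per well, DMEM/10% FCS) preincubated with compound 2 h at 37° C, then PE-labeled human PD-L1-Ig (20 nM final) added for 1 h. Cells fixed with paraformaldehyde, Hoechst-stained, and bound fluorescence quantified by high-content imaging.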

T1 sequence (Q15116 25-288): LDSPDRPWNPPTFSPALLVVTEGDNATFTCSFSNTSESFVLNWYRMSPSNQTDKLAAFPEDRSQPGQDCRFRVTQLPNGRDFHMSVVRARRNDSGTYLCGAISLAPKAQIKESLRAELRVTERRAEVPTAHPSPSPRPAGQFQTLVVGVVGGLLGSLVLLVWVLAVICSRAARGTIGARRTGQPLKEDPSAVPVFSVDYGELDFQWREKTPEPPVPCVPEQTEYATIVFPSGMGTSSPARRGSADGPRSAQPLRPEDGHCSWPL

Row | Compound | IC50 [nM]
1 | Cc1cccc(C[C@@H]2NC(=O)[C@H](CC(=O)O)NC(=O)[C@H](Cc3ccc(OCC(=O)O)cc3)NC(=O)[C@H](CC(N)=O)NC(=O)CSC[C@@H](C(=O)N[C@@H](CCN)C(=O)NCCCCCCCCCCC(=O)O)NC(=O)[C@H](CO)NC(=O)[C@H](C(C)O)NC(=O)[C@H](CC3CCCCC3)NC(=O)[C@H](CCN)NC(=O)[C@@H](CC(C)C)NC(=O)[C@H](CCCN)NC(=O)[C@H](Cc3ccc(OCC(=O)O)cc3)NC(=O)[C@H](Cc3ccc(-c4ccccc4)cc3)NC(=O)[C@H](Cc3ccc(OCC(=O)O)cc3)NC2=O)c1 (stereo partly drawn) [Compound 3639] ({CH2CO}-NY(Carboxymethyl)D[Phe(3-Me)]Y(Carboxymethyl)[Bip]Y(Carboxymethyl)[Orn][dL][Dab][Cha][Thr(3ξ)]SC[Dab][Aun]-OH; thioether N-14) | 10.5
2 | Cc1cccc(C[C@@H]2NC(=O)[C@H](CC(=O)O)NC(=O)[C@H](Cc3ccc(O)cc3)NC(=O)[C@@H](CCCNC(=N)N)NC(=O)CSC[C@@H](C(=O)N[C@@H](CCN)C(=O)NCCCCCCCCCCC(=O)O)NC(=O)[C@H](CO)NC(=O)[C@H](C(C)(C)O)NC(=O)[C@H](CC3CCCCC3)NC(=O)[C@H](CCN)NC(=O)[C@@H](CC(C)C)NC(=O)[C@H](CCCN)NC(=O)[C@H](Cc3ccc(OCC(=O)O)cc3)NC(=O)[C@H](Cc3ccc(-c4ccccc4)cc3)NC(=O)[C@H](Cc3ccc(OCC(=O)O)cc3)NC2=O)c1 [Compound 3640] ({CH2CO}-[dR]YD[Phe(3-Me)]Y(Carboxymethyl)[Bip]Y(Carboxymethyl)[Orn][dL][Dab][Cha][Val(3-OH)]SC[Dab][Aun]-OH; thioether N-14) | 11
3 | Cc1cccc(C[C@@H]2NC(=O)[C@H](CC(=O)O)NC(=O)[C@H](Cc3ccc(OCC(=O)O)cc3)NC(=O)[C@H](CCN)NC(=O)CSC[C@@H](C(=O)N[C@@H](CCN)C(=O)NCCCCCCCCCCC(=O)O)NC(=O)[C@H](CO)NC(=O)[C@H](C(C)(C)O)NC(=O)[C@H](CC3CCCCC3)NC(=O)[C@H](Cc3cnc[nH]3)NC(=O)[C@@H](CC(C)C)NC(=O)[C@H](CCCN)NC(=O)[C@H](Cc3ccc(OCC(=O)O)cc3)NC(=O)[C@H](Cc3ccc(-c4ccccc4)cc3)NC(=O)[C@H](Cc3ccc(OCC(=O)O)cc3)NC2=O)c1 [Compound 3641] ({CH2CO}-[Dab]Y(Carboxymethyl)D[Phe(3-Me)]Y(Carboxymethyl)[Bip]Y(Carboxymethyl)[Orn][dL]H[Cha][Val(3-OH)]SC[Dab][Aun]-OH; thioether N-14) | 7.4
4 | Cc1cccc(C[C@@H]2NC(=O)[C@H](CC(=O)O)NC(=O)[C@H](Cc3ccc(OCC(=O)O)cc3)NC(=O)[C@H](CCN)NC(=O)CSC[C@@H](C(=O)N[C@@H](CC(N)=O)C(=O)NCCCCCCCCCCC(=O)O)NC(=O)[C@H](Cc3cnc[nH]3)NC(=O)[C@H](C(C)O)NC(=O)[C@H](CC3CCCCC3)NC(=O)[C@H](CCN)NC(=O)[C@@H](CC(C)C)NC(=O)[C@H](CCCN)NC(=O)[C@H](Cc3ccc(OCC(=O)O)cc3)NC(=O)[C@H](Cc3ccc(-c4ccccc4)cc3)NC(=O)[C@H](Cc3ccc(OCC(=O)O)cc3)NC2=O)c1 (stereo partly drawn) [Compound 3642] ({CH2CO}-[Dab]Y(Carboxymethyl)D[Phe(3-Me)]Y(Carboxymethyl)[Bip]Y(Carboxymethyl)[Orn][dL][Dab][Cha][Thr(3ξ)]HCN[Aun]-OH; thioether N-14) | 6.8
5 | CC(=O)NCCCC[C@@H]1NC(=O)[C@H](Cc2ccc(-c3ccccc3)cc2)NC(=O)[C@H](Cc2ccc(OCC(=O)O)cc2)NC(=O)[C@H](Cc2cccc(C)c2)NC(=O)[C@H](CC(=O)O)NC(=O)[C@H](Cc2ccc(OCC(=O)O)cc2)NC(=O)[C@H](CCN)NC(=O)CSC[C@@H](C(=O)N[C@@H](CCN)C(=O)N[C@@H](CO)C(=O)NCCCCCCCCCCC(=O)O)NC(=O)[C@H](CO)NC(=O)[C@H](C(C)(C)O)NC(=O)[C@H](CC2CCCCC2)NC(=O)[C@H](CCN)NC(=O)[C@@H](CC(C)C)NC(=O)[C@H](CCCN)NC1=O [Compound 3644] ({CH2CO}-[Dab]Y(Carboxymethyl)D[Phe(3-Me)]Y(Carboxymethyl)[Bip]K(Ac)[Orn][dL][Dab][Cha][Val(3-OH)]SC[Dab]S[Aun]-OH; thioether N-14) | 18.8
6 | CC(=O)NCCCC[C@@H]1NC(=O)[C@H](Cc2ccc(-c3ccccc3)cc2)NC(=O)[C@H](CCNC(C)=O)NC(=O)[C@H](Cc2cccc(C)c2)NC(=O)[C@H](CC(=O)O)NC(=O)[C@H](Cc2ccc(OCC(=O)O)cc2)NC(=O)[C@H](Cc2ccc(OCC(=O)O)cc2)NC(=O)CSC[C@@H](C(=O)N[C@@H](CCN)C(=O)N[C@@H](CO)C(=O)NCCCCCCCCCCCC(=O)O)NC(=O)[C@H](Cc2cnc[nH]2)NC(=O)[C@H](C(C)O)NC(=O)[C@H](CC2CCCCC2)NC(=O)[C@H](CCN)NC(=O)[C@@H](CC(C)C)NC(=O)[C@H](CCCN)NC1=O (stereo partly drawn) [Compound 3646] ({CH2CO}-Y(Carboxymethyl)Y(Carboxymethyl)D[Phe(3-Me)][Dab](Ac)[Bip]K(Ac)[Orn][dL][Dab][Cha][Thr(3ξ)]HC[Dab]S[12Ado]-OH; thioether N-14) | 94.7
7 | CC(C)C[C@H]1NC(=O)[C@H](CCCN)NC(=O)[C@H](C(C)C)NC(=O)[C@H](Cc2ccc(-c3ccccc3)cc2)NC(=O)[C@H](C(C)C)NC(=O)[C@H](Cc2c[nH]c3ccccc23)NC(=O)[C@H](CC(=O)O)NC(=O)[C@H](Cc2ccc(OCC(=O)O)cc2)NC(=O)[C@H](CN)NC(=O)CSC[C@@H](C(=O)N[C@@H](CCN)C(=O)NCCCCCCCCCCC(=O)O)NC(=O)[C@H](CN)NC(=O)[C@H](C(C)O)NC(=O)[C@H](CC2CCCCC2)NC(=O)[C@H](CCN)NC1=O (stereo partly drawn) [Compound 3647] ({CH2CO}-[Dap]Y(Carboxymethyl)DWV[Bip]V[Orn][dL][Dab][Cha][Thr(3ξ)][Dap]C[Dab][Aun]-OH; thioether N-14) | 27.7
8 | CC(C)C[C@H]1NC(=O)[C@H](CCCN)NC(=O)[C@H](C(C)C)NC(=O)[C@H](Cc2ccc(-c3ccccc3)cc2)NC(=O)[C@H](C(C)C)NC(=O)[C@H](Cc2c[nH]c3ccccc23)NC(=O)[C@H](CC(=O)O)NC(=O)[C@H](Cc2ccc(OCC(=O)O)cc2)NC(=O)[C@H](CN)NC(=O)CSC[C@@H](C(=O)N[C@@H](CCN)C(=O)NCCCCCCCCCCC(=O)O)NC(=O)[C@H](CCCCN)NC(=O)[C@H](C(C)O)NC(=O)[C@H](CC2CCCCC2)NC(=O)[C@H](CCN)NC1=O (stereo partly drawn) [Compound 3648] ({CH2CO}-[Dap]Y(Carboxymethyl)DWV[Bip]V[Orn][dL][Dab][Cha][Thr(3ξ)]KC[Dab][Aun]-OH; thioether N-14) | 21.5
9 | CC(C)C[C@H]1NC(=O)[C@H](CCCN)NC(=O)[C@H](C(C)C)NC(=O)[C@H](Cc2ccc(-c3ccccc3)cc2)NC(=O)[C@H](C(C)C)NC(=O)[C@H](Cc2c[nH]c3ccccc23)NC(=O)[C@H](CC(=O)O)NC(=O)[C@H](Cc2ccc(OCC(=O)O)cc2)NC(=O)[C@H](CN)NC(=O)CSC[C@@H](C(=O)N[C@@H](CCN)C(=O)NCCOCCOCC(=O)N[C@@H](CCC(=O)NCCCCCCCCCCC(=O)O)C(=O)O)NC(=O)[C@H](CN)NC(=O)[C@H](C(C)O)NC(=O)[C@H](CC2CCCCC2)NC(=O)[C@H](CCN)NC1=O (stereo partly drawn) [Compound 3649] ({CH2CO}-[Dap]Y(Carboxymethyl)DWV[Bip]V[Orn][dL][Dab][Cha][Thr(3ξ)][Dap]C[Dab][AEEA][γGlu][Aun]-OH; thioether N-14) | 7.5
10 | CC(C)C[C@H]1NC(=O)[C@H](CCCN)NC(=O)[C@H](C(C)C)NC(=O)[C@H](Cc2ccc(-c3ccccc3)cc2)NC(=O)[C@H](C(C)C)NC(=O)[C@H](Cc2c[nH]c3ccccc23)NC(=O)[C@H](CC(=O)O)NC(=O)[C@H](Cc2ccc(OCC(=O)O)cc2)NC(=O)[C@H](CN)NC(=O)CSC[C@@H](C(=O)N[C@@H](CCN)C(=O)NCCOCCOCC(=O)N[C@@H](CCC(=O)NCCCCCCCCCCC(=O)O)C(=O)O)NC(=O)[C@H](CCCCN)NC(=O)[C@H](C(C)O)NC(=O)[C@H](CC2CCCCC2)NC(=O)[C@H](CCN)NC1=O (stereo partly drawn) [Compound 3650] ({CH2CO}-[Dap]Y(Carboxymethyl)DWV[Bip]V[Orn][dL][Dab][Cha][Thr(3ξ)]KC[Dab][AEEA][γGlu][Aun]-OH; thioether N-14) | 17.5
11 | CC(C)C[C@H]1NC(=O)[C@H](CCCN)NC(=O)[C@H](C(C)C)NC(=O)[C@H](Cc2ccc(-c3ccccc3)cc2)NC(=O)[C@H](C(C)C)NC(=O)[C@H](Cc2c[nH]c3ccccc23)NC(=O)[C@H](CC(=O)O)NC(=O)[C@H](Cc2ccc(OCC(=O)O)cc2)NC(=O)[C@H](CN)NC(=O)CSC[C@@H](C(=O)N[C@@H](CCN)C(=O)NCCCCCCCCCCC(=O)O)NC(=O)[C@H](CO)NC(=O)[C@H](C(C)O)NC(=O)[C@H](CC2CCCCC2)NC(=O)[C@H](CCN)NC1=O (stereo partly drawn) [Compound 3651] ({CH2CO}-[Dap]Y(Carboxymethyl)DWV[Bip]V[Orn][dL][Dab][Cha][Thr(3ξ)]SC[Dab][Aun]-OH; thioether N-14) | 24.1
12 | CC(C)C[C@H]1NC(=O)[C@H](CCCN)NC(=O)[C@H](C(C)C)NC(=O)[C@H](Cc2ccc(-c3ccccc3)cc2)NC(=O)[C@H](C(C)C)NC(=O)[C@H](Cc2c[nH]c3ccccc23)NC(=O)[C@H](CC(=O)O)NC(=O)[C@H](Cc2ccc(OCC(=O)O)cc2)NC(=O)[C@H](CN)NC(=O)CSC[C@@H](C(=O)N[C@@H](CCN)C(=O)NCCCCCCCCCCC(=O)O)NC(=O)[C@H](Cc2cnc[nH]2)NC(=O)[C@H](C(C)O)NC(=O)[C@H](CC2CCCCC2)NC(=O)[C@H](CCN)NC1=O (stereo partly drawn) [Compound 3652] ({CH2CO}-[Dap]Y(Carboxymethyl)DWV[Bip]V[Orn][dL][Dab][Cha][Thr(3ξ)]HC[Dab][Aun]-OH; thioether N-14) | 22.1
13 | CC(C)C[C@H]1NC(=O)[C@H](CCCN)NC(=O)[C@H](Cc2ccc(O)cc2)NC(=O)[C@H](Cc2ccc(-c3ccccc3)cc2)NC(=O)[C@H](C(C)C)NC(=O)[C@H](Cc2c[nH]c3ccccc23)NC(=O)[C@H](CC(=O)O)NC(=O)[C@H](Cc2ccc(OCC(=O)O)cc2)NC(=O)[C@H](CN)NC(=O)CSC[C@@H](C(=O)N[C@@H](CCN)C(=O)NCCCCCCCCCCC(=O)O)NC(=O)[C@H](CN)NC(=O)[C@H](C(C)O)NC(=O)[C@H](CC2CCCCC2)NC(=O)[C@H](CCN)NC1=O (stereo partly drawn) [Compound 3654] ({CH2CO}-[Dap]Y(Carboxymethyl)DWV[Bip]Y[Orn][dL][Dab][Cha][Thr(3ξ)][Dap]C[Dab][Aun]-OH; thioether N-14) | 45.1
